Assay results taken from ChEMBL document CHEMBL4270672, “Synthesis and Biological Evaluation of Fused Tricyclic Heterocycle Piperazine (Piperidine) Derivatives As Potential Multireceptor Atypical Antipsychotics” (J Med Chem, 2018).
Activity calls are given as the source filed them. The rule behind the calls is not given here.

Legend:
[1] = Half life in Sprague-Dawley rat at 1 mg/kg, iv by LC-MS/MS analysis; assay type: ADME, organism-based; settings: in vivo
[2] = target: T1, 5-hydroxytryptamine receptor 6 (Homo sapiens, UniProt P50406); experiment: biochemical
[3] = Oral bioavailability in Sprague-Dawley rat at 10 mg/kg by LC-MS/MS analysis; assay type: ADME, organism-based; settings: in vivo
[4] = target: 5-hydroxytryptamine receptor 1A (Homo sapiens, UniProt P08908)
[5] = target: Histamine H1 receptor (Cavia porcellus, UniProt P31389)
Description: Displacement of [3H]-mepyramine from histamine H1 receptor in guinea pig cerebellum homogenates incubated for 60 mins by liquid scintillation counting

[6] = target: Sigma non-opioid intracellular receptor 1 (Cavia porcellus, UniProt Q60492); experiment: Displacement of [3H]-(+)-pentazocine from sigma1 receptor in guinea pig brain membranes after 180 mins by liquid scintillation counting; assay type: cell membranes, Membrane
[7] = target: Sodium-dependent serotonin transporter (Rattus norvegicus, UniProt P31652); experiment: Displacement of [3H]-paroxetine from SERT in rat cerebral cotex homogenates after 10 mins by liquid scintillation counting
[8] = test system: Mus musculus; settings: Kunming
Description: (§1) Antipsychotic activity in po dosed Kunming mouse assessed as reduction in MK-801-induced hyperactivity pretreated for 60 mins followed by MK-801 challenge measured for 90 mins

[9] = target: Sodium-dependent dopamine transporter (Rattus norvegicus, UniProt P23977); experiment: Displacement of [3H] WIN35,428 from rat striatum homogenate DAT after 8 hrs mins by liquid scintillation counting
[10] = target: T2, 5-hydroxytryptamine receptor 2C (Rattus norvegicus, UniProt P08909)
T2 sequence (P08909 whole entry): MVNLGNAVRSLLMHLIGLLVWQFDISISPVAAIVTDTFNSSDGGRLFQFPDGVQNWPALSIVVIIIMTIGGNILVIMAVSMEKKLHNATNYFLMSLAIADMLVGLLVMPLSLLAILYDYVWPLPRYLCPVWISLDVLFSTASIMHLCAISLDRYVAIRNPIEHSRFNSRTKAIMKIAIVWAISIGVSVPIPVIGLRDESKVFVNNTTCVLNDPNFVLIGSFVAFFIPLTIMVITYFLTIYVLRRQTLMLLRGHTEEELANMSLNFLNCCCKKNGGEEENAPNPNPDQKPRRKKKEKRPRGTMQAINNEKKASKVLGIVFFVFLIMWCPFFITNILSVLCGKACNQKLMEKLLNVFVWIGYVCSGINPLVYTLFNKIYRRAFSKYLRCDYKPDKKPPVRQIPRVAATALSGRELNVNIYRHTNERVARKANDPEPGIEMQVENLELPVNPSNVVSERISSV

[11] = target: T1, 5-hydroxytryptamine receptor 6
[12] = target: Muscarinic acetylcholine receptor M1 (Homo sapiens, UniProt P11229); experiment: Displacement of [3H]-QNB from M1 receptor (unknown origin) in cell membrane homogenates after 30 mins by liquid scintillation counting
[13] = Cmax in Sprague-Dawley rat at 10 mg/kg, po by LC-MS/MS analysis; assay type: ADME, organism-based; design: dose 10 mg/kg, route oral; settings: in vivo
[14] = AUC (0 to t) in Sprague-Dawley rat at 1 mg/kg, iv by LC-MS/MS analysis; assay type: ADME, organism-based; settings: in vivo
[15] = target: Histamine H3 receptor (Rattus norvegicus, UniProt Q9QYN8); experiment: Displacement of [3H] methylhistamine from histamine H3 receptor in rat cerebral cotex homogenates after 30 mins by liquid scintillation counting
[16] = test system: Mus musculus; settings: Kunming; remark: listed apart in the source
Description: (§2) Antipsychotic activity in po dosed Kunming mouse assessed as reduction in apomorphine-induced climbing pretreated for 30 mins followed by apomorphine injection measured at 10 to 30 mins post dose

[17] = target: D(3) dopamine receptor (Homo sapiens, UniProt P35462)
[18] = Acute toxicity in po dosed Kunming mouse assessed as mortality measured after 24 hrs post dose; assay type: organism-based; settings: in vivo
[19] = test system: Mus musculus; experiment: Induction of serum prolactin levels in Kunming mouse at 0.6 to 5.4 mg/kg, po administered for 28 days measured at 180 mins post last dose by EIA; assay type: organism-based; settings: in vivo, 3 h
[20] = species on record: Mus musculus; experiment: animal or person; settings: Kunming, po
Description: as §1

[21] = test system: Mus musculus; experiment: Induction of catalepsy in po dosed Kunming mouse measured after 60 secs; assay type: organism-based; settings: in vivo, 1 min
[22] = target: Voltage-gated inwardly rectifying potassium channel KCNH2 (Homo sapiens, UniProt Q12809)
Description: Inhibition of human ERG expressed in HEK293 cells at -50 mV holding potential by patch clamp assay

[23] = test system: Rattus norvegicus; experiment: Antipsychotic activity in po dosed Sprague-Dawley rat assessed as reduction in conditioned avoidance response measured at 90 mins post single dose; assay type: functional; settings: 1.5 h
[24] = target: 5-hydroxytryptamine receptor 2A (Rattus norvegicus, UniProt P14842); experiment: Displacement of [3H]-ketanserine from serotonin 5-HT2A receptor in rat brain cortex homogenates incubated for 30 mins by liquid scintillation counting
[25] = test system: Rattus norvegicus; experiment: Cognitive enhancing effect in Sprague-Dawley rat assessed as increase in total exploration time for novel objects in retention trial at 0.03 mg/kg, po administered 1 hr prior to acquisition trial measured 24 hrs post acquisition trial for 5 mins by novel object recognition test; assay type: functional, organism-based
[26] = Therapeutic index, ratio of ED50 for catalepsy in Kunming mouse to ED50 for MK-801-induced hyperactivity in Kunming mouse; assay type: toxicity, organism-based; settings: in vivo, read-out: Ratio ED50
[27] = Displacement of [3H]-DTG from sigma2 receptor in guinea pig brain membranes after 120 mins by liquid scintillation counting; assay type: cell membranes, Cavia porcellus, Membrane
[28] = species on record: Mus musculus; experiment: animal or person; settings: Kunming, po; remark: listed apart in the source
Description: as §2

[29] = target: Glutamate NMDA receptor; experiment: Displacement of [3H] glycine from NMDA receptor in rat hippocampal membrane homogenates after 30 mins by liquid scintillation counting; assay type: cell membranes
[30] = Tmax in Sprague-Dawley rat at 10 mg/kg, po by LC-MS/MS analysis; assay type: ADME, organism-based; settings: in vivo
[31] = target: D(1A) dopamine receptor (Homo sapiens, UniProt P21728); experiment: Antagonist activity at human dopamine D1 receptor expressed in HEK293T cells assessed as inhibition of dopamine-induced cAMP accumulation at 10 uM preincubated for 15 mins followed by dopamine induction and measured after 30 mins by HTRF assay; assay type: functional, cell-based
D(1A) dopamine receptor, sequence (P21728 whole entry): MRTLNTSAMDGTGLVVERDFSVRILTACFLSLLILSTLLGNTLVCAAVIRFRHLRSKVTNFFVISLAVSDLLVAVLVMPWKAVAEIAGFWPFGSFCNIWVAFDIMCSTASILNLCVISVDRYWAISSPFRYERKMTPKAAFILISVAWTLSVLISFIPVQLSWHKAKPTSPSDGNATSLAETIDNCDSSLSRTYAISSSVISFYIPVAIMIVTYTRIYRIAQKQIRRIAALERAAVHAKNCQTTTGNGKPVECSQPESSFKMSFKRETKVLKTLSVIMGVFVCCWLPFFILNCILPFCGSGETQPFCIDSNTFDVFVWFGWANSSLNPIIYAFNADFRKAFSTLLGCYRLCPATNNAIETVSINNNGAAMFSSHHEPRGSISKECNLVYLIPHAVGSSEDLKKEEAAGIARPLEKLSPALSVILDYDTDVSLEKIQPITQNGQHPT

T1 sequence (P50406 whole entry): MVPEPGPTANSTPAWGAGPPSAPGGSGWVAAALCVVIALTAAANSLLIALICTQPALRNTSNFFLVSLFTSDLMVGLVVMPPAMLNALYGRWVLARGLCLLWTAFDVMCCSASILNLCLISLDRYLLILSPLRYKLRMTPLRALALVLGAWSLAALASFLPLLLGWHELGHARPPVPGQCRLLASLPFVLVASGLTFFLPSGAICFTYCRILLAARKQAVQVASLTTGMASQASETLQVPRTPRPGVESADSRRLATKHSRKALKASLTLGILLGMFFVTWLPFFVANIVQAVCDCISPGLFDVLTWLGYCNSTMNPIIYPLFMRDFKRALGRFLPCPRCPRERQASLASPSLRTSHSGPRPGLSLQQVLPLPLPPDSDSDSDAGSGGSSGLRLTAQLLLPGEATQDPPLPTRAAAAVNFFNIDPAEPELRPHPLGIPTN
Muscarinic acetylcholine receptor M1, sequence (P11229 whole entry): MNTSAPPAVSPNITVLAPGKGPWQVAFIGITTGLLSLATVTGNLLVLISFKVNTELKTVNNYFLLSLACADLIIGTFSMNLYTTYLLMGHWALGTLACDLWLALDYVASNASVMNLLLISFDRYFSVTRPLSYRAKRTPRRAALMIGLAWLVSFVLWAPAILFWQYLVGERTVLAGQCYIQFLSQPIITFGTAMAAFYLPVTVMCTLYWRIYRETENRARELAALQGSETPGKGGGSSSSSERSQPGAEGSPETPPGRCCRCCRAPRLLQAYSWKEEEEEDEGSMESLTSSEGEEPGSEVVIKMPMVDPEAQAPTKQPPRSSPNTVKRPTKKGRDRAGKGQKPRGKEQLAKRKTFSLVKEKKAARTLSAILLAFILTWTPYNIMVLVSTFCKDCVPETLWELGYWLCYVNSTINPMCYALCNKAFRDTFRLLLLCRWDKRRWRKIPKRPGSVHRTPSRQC
Sodium-dependent dopamine transporter, sequence (P23977 whole entry): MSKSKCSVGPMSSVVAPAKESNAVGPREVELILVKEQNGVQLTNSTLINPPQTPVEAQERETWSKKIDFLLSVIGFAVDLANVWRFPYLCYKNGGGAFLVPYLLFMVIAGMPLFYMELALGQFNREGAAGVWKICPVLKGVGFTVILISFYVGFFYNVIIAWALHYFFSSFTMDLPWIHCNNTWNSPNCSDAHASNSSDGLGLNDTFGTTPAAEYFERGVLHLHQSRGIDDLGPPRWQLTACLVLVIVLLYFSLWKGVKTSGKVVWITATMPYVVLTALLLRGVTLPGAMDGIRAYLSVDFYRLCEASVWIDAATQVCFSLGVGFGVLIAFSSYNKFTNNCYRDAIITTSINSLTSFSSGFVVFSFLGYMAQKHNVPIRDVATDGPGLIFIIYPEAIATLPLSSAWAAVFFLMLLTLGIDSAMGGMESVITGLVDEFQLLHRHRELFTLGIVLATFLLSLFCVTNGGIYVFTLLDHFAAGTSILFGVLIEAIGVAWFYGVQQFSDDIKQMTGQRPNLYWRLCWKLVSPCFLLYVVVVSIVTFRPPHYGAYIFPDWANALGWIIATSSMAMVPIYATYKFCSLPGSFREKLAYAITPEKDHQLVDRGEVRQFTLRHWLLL
Histamine H1 receptor, sequence (P31389 whole entry): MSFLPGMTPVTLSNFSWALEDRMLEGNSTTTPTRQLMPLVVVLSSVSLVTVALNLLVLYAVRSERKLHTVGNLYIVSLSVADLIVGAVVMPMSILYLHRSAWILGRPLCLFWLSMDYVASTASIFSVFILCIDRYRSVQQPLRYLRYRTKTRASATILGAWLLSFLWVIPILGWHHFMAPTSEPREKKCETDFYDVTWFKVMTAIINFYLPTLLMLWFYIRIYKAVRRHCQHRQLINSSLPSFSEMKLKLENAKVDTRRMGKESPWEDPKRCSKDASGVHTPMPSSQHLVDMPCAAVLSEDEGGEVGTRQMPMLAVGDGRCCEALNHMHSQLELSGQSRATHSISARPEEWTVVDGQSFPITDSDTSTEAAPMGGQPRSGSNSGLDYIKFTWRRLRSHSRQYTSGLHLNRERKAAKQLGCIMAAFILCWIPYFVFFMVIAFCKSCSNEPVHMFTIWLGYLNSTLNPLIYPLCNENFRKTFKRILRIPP
Histamine H3 receptor, sequence (Q9QYN8 whole entry): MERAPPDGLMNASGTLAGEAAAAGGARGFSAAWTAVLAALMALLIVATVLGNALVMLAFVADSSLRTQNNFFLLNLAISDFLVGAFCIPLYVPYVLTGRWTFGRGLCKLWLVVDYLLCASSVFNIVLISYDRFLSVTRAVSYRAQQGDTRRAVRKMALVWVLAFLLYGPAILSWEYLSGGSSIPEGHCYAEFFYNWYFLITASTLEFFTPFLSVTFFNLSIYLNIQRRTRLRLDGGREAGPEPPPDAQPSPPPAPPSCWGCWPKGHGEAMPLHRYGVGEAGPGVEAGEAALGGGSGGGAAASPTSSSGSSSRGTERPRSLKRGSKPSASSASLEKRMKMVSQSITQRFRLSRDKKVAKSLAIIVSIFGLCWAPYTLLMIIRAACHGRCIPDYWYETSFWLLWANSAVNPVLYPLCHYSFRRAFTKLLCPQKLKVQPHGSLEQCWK
D(3) dopamine receptor, sequence (P35462 whole entry): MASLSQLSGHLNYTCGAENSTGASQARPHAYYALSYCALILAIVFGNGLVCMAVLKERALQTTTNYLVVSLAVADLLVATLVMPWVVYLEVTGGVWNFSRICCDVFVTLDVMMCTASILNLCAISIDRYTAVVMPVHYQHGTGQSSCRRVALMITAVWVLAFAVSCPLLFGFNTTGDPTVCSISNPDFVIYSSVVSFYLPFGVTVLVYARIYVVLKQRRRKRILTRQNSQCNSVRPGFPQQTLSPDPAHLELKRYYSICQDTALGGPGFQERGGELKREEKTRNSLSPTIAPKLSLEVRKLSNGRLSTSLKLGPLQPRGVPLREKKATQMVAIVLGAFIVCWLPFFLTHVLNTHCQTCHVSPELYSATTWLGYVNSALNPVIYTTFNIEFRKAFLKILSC
Sigma non-opioid intracellular receptor 1, sequence (Q60492 whole entry): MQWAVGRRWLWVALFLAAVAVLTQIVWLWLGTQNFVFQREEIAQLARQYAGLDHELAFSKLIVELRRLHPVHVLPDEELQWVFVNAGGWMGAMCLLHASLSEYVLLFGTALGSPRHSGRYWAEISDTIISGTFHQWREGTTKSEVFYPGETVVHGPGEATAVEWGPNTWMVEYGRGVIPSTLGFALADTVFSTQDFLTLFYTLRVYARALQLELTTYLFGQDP
Sodium-dependent serotonin transporter, sequence (P31652 whole entry): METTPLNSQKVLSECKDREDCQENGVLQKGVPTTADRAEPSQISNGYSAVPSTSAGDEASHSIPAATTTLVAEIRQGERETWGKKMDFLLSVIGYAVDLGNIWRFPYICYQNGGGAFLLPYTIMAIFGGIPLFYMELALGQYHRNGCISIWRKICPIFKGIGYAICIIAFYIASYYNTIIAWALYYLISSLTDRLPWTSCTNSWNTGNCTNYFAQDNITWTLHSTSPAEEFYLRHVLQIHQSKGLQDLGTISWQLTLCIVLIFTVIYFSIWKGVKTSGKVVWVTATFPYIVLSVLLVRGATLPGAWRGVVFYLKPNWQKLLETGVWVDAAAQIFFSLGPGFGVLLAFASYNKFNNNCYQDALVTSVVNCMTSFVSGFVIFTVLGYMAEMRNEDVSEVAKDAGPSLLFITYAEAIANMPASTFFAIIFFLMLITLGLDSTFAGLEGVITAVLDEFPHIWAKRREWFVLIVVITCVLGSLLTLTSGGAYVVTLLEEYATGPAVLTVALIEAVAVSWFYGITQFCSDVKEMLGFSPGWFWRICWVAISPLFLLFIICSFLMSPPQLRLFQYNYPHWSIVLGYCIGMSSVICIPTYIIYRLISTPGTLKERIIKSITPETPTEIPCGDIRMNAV
5-hydroxytryptamine receptor 1A, sequence (P08908 whole entry): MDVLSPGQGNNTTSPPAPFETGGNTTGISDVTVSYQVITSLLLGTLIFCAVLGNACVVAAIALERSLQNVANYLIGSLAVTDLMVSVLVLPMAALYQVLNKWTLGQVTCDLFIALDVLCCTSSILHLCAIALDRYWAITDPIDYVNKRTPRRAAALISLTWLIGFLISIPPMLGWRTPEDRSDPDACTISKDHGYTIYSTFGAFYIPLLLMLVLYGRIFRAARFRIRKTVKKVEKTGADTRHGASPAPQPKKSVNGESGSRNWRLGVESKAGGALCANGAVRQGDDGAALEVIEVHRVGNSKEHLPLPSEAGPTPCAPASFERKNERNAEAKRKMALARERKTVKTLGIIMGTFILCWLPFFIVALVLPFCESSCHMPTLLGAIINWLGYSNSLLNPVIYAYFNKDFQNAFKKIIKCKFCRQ

**Q.** Which half-life [1] does the source give for `O=C(CCCCN1CCC(c2noc3cc(F)ccc23)CC1)c1cc2c3c(c1)CCN3C(=O)CC2` here?
**A.** 2.15 h

**Q.** What about the Ki [2] of the same compound?
**A.** 0.00555 µM

**Q.** What about the bioavailability [3] of the same compound?
**A.** 58.8%

**Q.** And the IC50 [4]?
**A.** 0.588 µM

**Q.** And the Ki [5]?
**A.** 0.63 µM

**Q.** And the Ki [6]?
**A.** > 1 µM

**Q.** And the Ki [7]?
**A.** > 1 µM

**Q.** What about the Activity [8] of the same compound?
**A.** Dose-dependent effect

**Q.** What about the Ki [9] of the same compound?
**A.** > 1 µM

**Q.** And the Ki [10]?
**A.** 0.616 µM

**Q.** And the IC50 [11]?
**A.** 0.178 µM

**Q.** What about the Ki [12] of the same compound?
**A.** > 1 µM

**Q.** And the Cmax [13]?
**A.** 3730 ng/mL

**Q.** What about the AUC(0-t) [14] of the same compound?
**A.** 3140 ng·h/mL

**Q.** What about the Ki [15] of the same compound?
**A.** > 1 µM

**Q.** And the Activity [16]?
**A.** Dose-dependent effect

**Q.** And the IC50 [17]?
**A.** 0.0256 µM

**Q.** And the LD50 at 24 h [18]?
**A.** > 2000 mg/kg

**Q.** And the Activity [19]?
**A.** Non-Toxic

**Q.** What about the ED50 [20] of the same compound?
**A.** 0.26 mg/kg

**Q.** What about the ED50 [21] of the same compound?
**A.** 78.62 mg/kg

**Q.** And the IC50 [22]?
**A.** 2.91 µM

**Q.** What about the ED50 [23] of the same compound?
**A.** 1.46 mg/kg

**Q.** And the Ki [24]?
**A.** 0.00072 µM

**Q.** What about the Activity [25] of the same compound?
**A.** inactive

**Q.** What about the selectivity ratio [26] of the same compound?
**A.** 302

**Q.** What about the Ki [27] of the same compound?
**A.** > 1 µM

**Q.** What about the ED50 [28] of the same compound?
**A.** 0.61 mg/kg

**Q.** And the Ki [29]?
**A.** > 1 µM

**Q.** And the Tmax [30]?
**A.** 1 h

**Q.** And the inhibition [31]?
**A.** > 90%
